We go through 37 molecules from patent US7902373B2 (Pfizer Inc, priority 2006, dated 2011).

This experiment deals with human recombinant H-PGDS (Homo sapiens, UniProt O60760). The experiment in a line: Fluorescence intensity h-PGDS TBA enzyme assay. The experiment is classed as biochemical. To be noted: Examples up to 622 (and 3a, 3b).

As usually defined, the IC50 is the concentration at which inhibition is half-maximal.

human recombinant H-PGDS, sequence (O60760 whole entry): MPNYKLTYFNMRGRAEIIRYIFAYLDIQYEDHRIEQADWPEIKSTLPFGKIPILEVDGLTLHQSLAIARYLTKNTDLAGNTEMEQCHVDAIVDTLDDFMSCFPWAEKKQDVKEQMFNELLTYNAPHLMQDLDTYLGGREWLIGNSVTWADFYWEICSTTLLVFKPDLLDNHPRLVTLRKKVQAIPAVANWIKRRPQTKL

Consider `COc1cc(CN2CCC(NC(=O)c3ccc(-c4cccc(F)c4)nc3)CC2)c(F)cc1Cl` [Example 467, N-[1-(4-Chloro-2-fluoro-5-methoxybenzyl)piperidin-4-yl]-6-(3-fluorophenyl)nicotinamide], for which the IC50 turned out to be 0.257 nM.

For `COc1cccc(C2(CN3CCC(NC(=O)c4ccc(-c5cccc(F)c5)nc4)CC3)CCOCC2)c1` [Example 286, 6-(3-Fluorophenyl)-N-(1-{[4-(3-methoxyphenyl)tetrahydro-2H-pyran-4-yl]methyl}piperidin-4-yl)nicotinamide], the IC50 is 1.21 nM. For `CNC(=O)N1CCC(NC(=O)c2ccc(-c3cccc(F)c3)nc2)CC1` [Example 592, 6-(3-Fluorophenyl)-N-{1-[(methylamino)carbonyl]piperidin-4-yl}nicotinamide] the value was 2.44 nM; for `Cc1ccn2c(CN3CCC(NC(=O)c4ccc(-c5cccc(F)c5)nc4)CC3)c(C)nc2c1` [Example 383, N-{1-[(2,7-Dimethylimidazo[1,2,a]pyridin-3-yl)methyl]piperidin-4-yl}-6-(3-fluorophenyl)nicotinamide], 1.25 nM. As to `CC(=O)N1CCC(NC(=O)c2ccc(-c3cccc(F)c3)nc2)C(c2ccc(F)cc2)C1` (stereo not shown) [Example 526], the IC50 is 76.3 nM. For `CCc1noc(COc2cccc(CN3CCC(NC(=O)c4ccc(-c5cccc(F)c5)nc4)CC3)c2)n1` [Example 388, N-(1-{3-[(3-Ethyl-1,2,4-oxadiazol-5-yl)methoxy]benzyl}piperidin-4-yl)-6-(3-fluorophenyl)nicotinamide] the value was 0.951 nM. For `O=C(NC1CCN(C2CCC(O)(c3nccs3)CC2)CC1)c1ccc(-c2cccc(F)c2)nc1` (stereo not shown) [Example 555, 6-(3-Fluorophenyl)-N-{1-[4-hydroxy-4-(1,3-thiazol-2-yl)cyclohexyl]piperidin-4-yl}nicotinamide] the value was 0.928 nM; for `C=CCC(C)(C)c1nc2c(N3CCC(NC(=O)c4ccc(-c5cccc(F)c5)nc4)CC3)ncnc2n1C` [Example 93, N-{1-[8-(1,1-Dimethylbut-3-en-1-yl)-9-methyl-9H-purin-6-yl]piperidin-4-yl}-6-(3-fluorophenyl)nicotinamide], 17.9 nM; for `C#CCN(C)C(=O)c1ccc(N2CCC(NC(=O)c3ccc(-c4cccc(F)c4)nc3)CC2)nc1` [Example 565, 6-[4-({[6-(3-Fluorophenyl)pyridin-3-yl]carbonyl}amino)piperidin-1-yl]-N-methyl-N-prop-2-yn-1-ylnicotinamide], 1.05 nM. For `CC(C)c1nnc2ccc(CN3CCC(NC(=O)c4ccc(-c5cccc(F)c5)nc4)CC3)cn12` [Example 470, 6-(3-Fluorophenyl)-N-{1-[(3-isopropyl[1,2,4]triazolo[4,3-a]pyridin-6-yl)methyl]piperidin-4-yl}nicotinamide] the value was 4.14 nM; for `CC(C)(C)OC(=O)N1CCC(NC(=O)c2ccc(-c3cccc(F)c3)nc2)C(c2ccc(F)cc2)C1` (stereo not shown) [Example 523, tert-Butyl 3-(4-fluorophenyl)-4-({[6-(3-fluorophenyl)pyridin-3-yl]carbonyl}amino)piperidine-1-carboxylate], 217 nM. With `CC(=O)NC1CCC(N2CCC(NC(=O)c3ccc(-c4cccc(F)c4)nc3)CC2)CC1` (stereo not shown) [Example 546, N-{1-[4-(Acetylamino)cyclohexyl]piperidin-4-yl}-6-(3-fluorophenyl)nicotinamide], the IC50 worked out at 2.83 nM. With `CCc1cn2nc(N3CCC(NC(=O)c4ccc(-c5cccc(F)c5)nc4)CC3)ccc2n1` [Example 154, N-[1-(2-Ethylimidazo[1,2-b]pyridazin-6-yl)piperidin-4-yl]-6-(3-fluorophenyl)nicotinamide] the figure was 0.96 nM; with `CCCc1ncc2c(n1)CCC(CN1CCC(NC(=O)c3ccc(-c4cccc(F)c4)nc3)CC1)C2` (stereo not shown) [Example 403, 6-(3-Fluorophenyl)-N-{1-[(2-propyl-5,6,7,8-tetrahydroquinazolin-6-yl)methyl]piperidin-4-yl}nicotinamide], 0.121 nM. With `NC(=O)CCN1CCC(N2CCC(NC(=O)c3ccc(-c4cccc(F)c4)nc3)CC2)CCC1=O` (stereo not shown) [Example 557, N-{1-[1-(3-Amino-3-oxopropyl)-7-oxoazepan-4-yl]piperidin-4-yl}-6-(3-fluorophenyl)nicotinamide], the IC50 is 6.56 nM. With `CCCCc1nc(CN2CCC(NC(=O)c3ccc(-c4cccc(F)c4)nc3)CC2)c[nH]1` [Example 199, N-{1-[(2-Butyl-1H-imidazol-4-yl)methyl]piperidin-4-yl}-6-(3-fluorophenyl)nicotinamide] the figure was 2.7 nM. For `CC(C)(C)C(=O)N1CCC(NC(=O)c2cnc(-c3cccc(F)c3)c(Cl)c2)CC1` [Example 622, 5-Chloro-6-(3-fluorophenyl)-N-(1-pivaloylpiperidin-4-yl)nicotinamide] the value was 3.48 nM; for `O=C(NC1CCN(Cc2ccc3c(c2)OCCO3)CC1)c1ccc(-c2cccc(F)c2)nc1` [Example 241, N-[1-(2,3-Dihydro-14-benzodioxin-6-ylmethyl)piperidin-4-yl]-6-(3-fluorophenyl)nicotinamide], 2.19 nM. With `O=C(NC1CCN(Cc2ccc3cc[nH]c3c2)CC1)c1ccc(-c2cccc(F)c2)nc1` [Example 502, 6-(3-Fluorophenyl)-N-[1-(1H-indol-6-ylmethyl)piperidin-4-yl]nicotinamide] the figure was 1.99 nM; with `CCN(CC)C(=O)c1ccc(CN2CCC(NC(=O)c3ccc(-c4cccc(F)c4)nc3)CC2)cc1` [Example 271, N-(1-{4-[(Diethylamino)carbonyl]benzyl}piperidin-4-yl)-6-(3-fluorophenyl)nicotinamide], 5.62 nM; with `Cc1cnc(C)c(N2CCC(NC(=O)c3ccc(-c4cccc(F)c4)nc3)CC2)n1` [Example 134, N-[1-(3,6-Dimethylpyrazin-2-yl)piperidin-4-yl]-6-(3-fluorophenyl)nicotinamide], 1.81 nM. Regarding `COc1cccc(Cn2nnnc2N2CCC(NC(=O)c3ccc(-c4cccc(F)c4)nc3)CC2)c1` [Example 108, 6-(3-Fluorophenyl)-N-{1-[1-(3-methoxybenzyl)-1H-tetrazol-5-yl}piperidin-4-yl)nicotinamide], the IC50 was found to be 1.29 nM. Turning to `Cn1c(CN2CCC(NC(=O)c3ccc(-c4cccc(F)c4)nc3)CC2)cc2ccccc21` [Example 207, 6-(3-Fluorophenyl)-N-{1-[(1-methyl-1H-indol-2-yl)methyl]piperidin-4-yl}nicotinamide], the IC50 is 1.59 nM. With `COCn1c(CN2CCC(NC(=O)c3ccc(-c4cccc(F)c4)nc3)CC2)nc2ccccc21` [Example 447, 6-(3-Fluorophenyl)-N-(1-{[1-(methoxymethyl)-1H-benzimidazol-2-yl]methyl}piperidin-4-yl)nicotinamide] the figure was 1.1 nM.

Regarding `O=C(NC1CCN(Cc2ccc3occc3c2)CC1)c1ccc(-c2cccc(F)c2)nc1` [Example 520, N-[1-(1-Benzofuran-5-ylmethyl)piperidin-4-yl]-6-(3-fluorophenyl)nicotinamide], the IC50 was 1.93 nM. `Cc1cc(C)c(C#N)c(N2C[C@@H](O)[C@H](NC(=O)c3ccc(-c4cccc(F)c4)nc3)C2)n1` (relative stereo) [Example 615, Trans-N-[1-(3-cyano-4,6-dimethylpyridin-2-yl)-4-hydroxypyrrolidin-3-yl]-6-(3-fluorophenyl)nicotinamide]: the IC50 is 5.1 nM. As for `COc1ccccc1OCC(C)N1CCC(NC(=O)c2ccc(-c3cccc(F)c3)nc2)CC1` (stereo not shown) [Example 553, 6-(3-Fluorophenyl)-N-{1-[2-(2-methoxyphenoxy)-1-methylethyl]piperidin-4-yl}nicotinamide], the IC50 turned out to be 1.78 nM. With `Cc1cccc(-c2ccc(C(=O)NC3CCN(CC(F)(F)F)CC3)cn2)c1` [Example 21, 6-m-Tolyl-N-(1-(2,2,2-trifluoroethyl)piperidin-4-yl)nicotinamide] the figure was 0.898 nM.

For `Cc1c(CN2CCC(NC(=O)c3ccc(-c4cccc(F)c4)nc3)CC2)cnn1C` [Example 287, N-{1-[(1,5-dimethyl-1H-pyrazol-4-yl)methyl]piperidin-4-yl}-6-(3-fluorophenyl)nicotinamide], the IC50 was found to be 3 nM. For `COc1ccc(CN2CCC(NC(=O)c3ccc(-c4cccc(F)c4)nc3)CC2)cc1CN(C)C` [Example 364, N-(1-{3-[(Dimethylamino)methyl]-4-methoxybenzyl}piperidin-4-yl)-6-(3-fluorophenyl)nicotinamide] the value was 4.03 nM. With `O=C(NC1CCN(Cc2ccccc2OCCO)CC1)c1ccc(-c2cccc(F)c2)nc1` [Example 255, 6-(3-Fluorophenyl)-N-{1-[2-(2-hydroxyethoxy)benzyl]piperidin-4-yl}nicotinamide] the figure was 0.738 nM; with `O=C(NC1CCN(Cc2c[nH]c3ccc(F)cc23)CC1)c1ccc(-c2cccc(F)c2)nc1` [Example 252, N-{1-[(5-Fluoro-1H-indol-3-yl)methyl]piperidin-4-yl}-6-(3-fluorophenyl)nicotinamide], 0.865 nM.

Regarding `O=C(NC1CCN(CC(F)(F)F)CC1)c1ccc(-c2cc(F)ccc2F)nc1` [Example 583, 6-(2,5-Difluorophenyl)-N-[1-(2,2,2-trifluoroethyl)piperidin-4-yl]nicotinamide], the concentration for half-maximal inhibition (IC50) was found to be 1.05 nM. With `O=C(NC1CCN(Cc2cnc(-c3ccccc3)s2)CC1)c1ccc(-c2cccc(F)c2)nc1` [Example 289, 6-(3-Fluorophenyl)-N-{1-[(2-phenyl-1,3-thiazol-5-yl)methyl]piperidin-4-yl}nicotinamide] the figure was 2.09 nM; with `Cc1nn(-c2ccc(F)cc2)c(C)c1CN1CCC(NC(=O)c2ccc(-c3cccc(F)c3)nc2)CC1` [Example 362, 6-(3-Fluorophenyl)-N-(1-{[1-(4-fluorophenyl)-3,5-dimethyl-1H-pyrazol-4-yl]methyl}piperidin-4-yl)nicotinamide], 1.05 nM; with `CC(=O)c1cc(C#N)c(N2CCC(NC(=O)c3ccc(-c4cccc(F)c4)nc3)CC2)nc1C` [Example 76, N-[1-(5-Acetyl-3-cyano-6-methylpyridin-2-yl)piperidin-4-yl]-6-(3-fluorophenyl)nicotinamide], 1.35 nM. As for `COc1ccc2ncnc(N3CCC(NC(=O)c4ccc(-c5cccc(F)c5)nc4)CC3)c2c1` [Example 178, 6-(3-Fluorophenyl)-N-[1-(6-methoxyquinazolin-4-yl)piperidin-4-yl]nicotinamide], the IC50 was found to be 0.735 nM.
